What was measured:
COLO 205 tumors = test: COLO 205 xenograft therapy; type: in vivo; conditions: for tumor volume (TV): 0.4 mg/kg, q4dx8, 28-day treatment period
[1] = Irinotecan MTD and conversion in mice; type: in vivo, mouse
MDA-MB-468 TNBC tumors = test: MDA-MB-468 TNBC xenograft; type: in vivo, mouse; conditions: one animal each, tumors progressed to ~0.7 cm^3 on irinotecan
[2] = animals given irinotecan; Goldenberg et al., 2014; cited from earlier work
[3] = weekly x 4 doses; Camptosar package insert; cited from earlier work
Capan-1 tumors = test: Capan-1 xenograft therapy; type: in vivo, mouse; conditions: for average tumor size: day 35, 0.4 mg SN-38/kg; for tumor volume (TV): day 49, 0.4 mg/kg SN-38; for tumor-free mice at end of study: day 140
Procedure: (§1) NCr female athymic nude (nu/nu) mice, 4 to 8 weeks old, and male Swiss-Webster mice, 10 weeks old, were purchased from Taconic Farms. Tolerability studies were performed in Cynomolgus monkeys (Macaca fascicularis; 2.5-4 kg male and female) by SNBL USA, Ltd. Animals were implanted subcutaneously with different human cancer cell lines. Tumor volume (TV) was determined by measurements in 2 dimensions using calipers, with volumes defined as: L×w^2/2, where L is the longest dimension of the tumor and w is the shortest. […] This dosing frequency reflected a consideration of the conjugate's serum half-life […], to allow a more continuous exposure to the ADC.
(§2) Statistics—Growth curves are shown as percent change in initial TV over time. Statistical analysis of tumor growth was based on area under the curve (AUC). Profiles of individual tumor growth were obtained through linear-curve modeling. An f-test was employed to determine equality of variance between groups before statistical analysis of growth curves. A 2-tailed t-test was used to assess statistical significance between the various treatment groups and controls, except for the saline control, where a 1-tailed t-test was used (significance at P≤0.05). Statistical comparisons of AUC were performed only up to the time that the first animal within a group was euthanized due to progression.

BxPC-3 [4] = test: dsDNA breaks, γH2AX induction in BxPC-3; type: cell-based, human; conditions: BxPC-3, 20 μg/ml for 30 min
Procedure: Assessment of Double-Stranded DNA Breaks In Vitro—For drug activity testing, BxPC-3 cells were seeded in 6-well plates at 5×10^5 cells/well and held at 37° C. overnight. […] The following morning, cells were trypsinized briefly, spun down, stained with Fixable Viability Stain 450 (BD Biosciences, San Jose, CA), washed with 1% BSA-PBS, and then fixed in 4% formalin for 15 min, washed again and permeabilized in 0.15% Triton-X100 in PBS for another 15 min. After washing twice with 1% BSA-PBS, cells were incubated with mouse anti-γH2AX-AF488 (EMD Millipore Corporation, Temecula, CA) for 45 min at 4° C. The signal intensity of γH2AX was measured by flow cytometry using a BD FACSCanto (BD Biosciences, San Jose, CA).

[5] = tested on: human gastric carcinoma xenograft, NCI-N87; test: NCI-N87 gastric carcinoma xenograft, Example 17; type: in vivo, mouse
Description: (§3) In Vivo Therapeutic Studies—NCr female athymic nude (nu/nu) mice, 4-8 weeks old, were purchased from Taconic Farms (Germantown, NY). NCI-N87 gastric tumor xenografts were established by harvesting cells from tissue culture and making a final cell suspension 1:1 in matrigel (BD Bioscience; San Jose, CA), with each mouse receiving a total of 1×10^7 cells s.c. in the right flank. For BxPC-3. xenografts of 1 g were harvested, and a tumor suspension made in HBSS to a concentration of 40% tumor w/v. This suspension was mixed 1:1 with matrigel for a final tumor suspension of 20% w/v. […] For IHC, tumors were allowed to grow to approximately 0.5 cm^3 before the mice were euthanized and the tumors removed, formalin-fixed and paraffin-embedded. For therapy studies, mice were randomized into treatment groups and therapy begun when tumor volumes were approximately 0.25 cm^3.
(§4) Mice were euthanized and deemed to have succumbed to disease once tumors grew to greater than 1.0 cm^3 in size. […] Time to progression (TTP) was determined as time post-therapy initiation when the tumor grew more than 20% in size from its nadir.
Survival studies were analyzed using Kaplan-Meier plots (log-rank analysis), using the Prism GraphPad Software (v4.03) software package (Advanced Graphics Software, Inc., Encinitas, CA).

[6] = tested on: NCI-N87 human gastric tumor xenografts; test: Dose schedules and chronic dosing, NCI-N87 xenograft; type: in vivo, mouse; conditions: four cycles
Description: as §3, §4
A similar dose schedule experiment was performed in mice bearing NCI-N87 human gastric tumor xenografts (not shown). […] Likewise, in terms of overall survival, while all three dose schedules provided a significant survival benefit when compared to untreated control (P<0.0001), there were no differences between any of these three different schedules.
In all, four treatment cycles were administered to the animals.

[7] = tested on: BxPC-3 human pancreatic tumors; test: BxPC-3 xenograft therapy; type: in vivo, mouse; conditions: day 21; equivalent amounts of ADC
Procedure: as §1, §2

Calu-3 = Calu-3 xenograft therapy; type: in vivo, mouse; conditions: for tumor volume (TV): 0.04 mg SN-38/kg every 4 days x 4; for outcome: 0.4 mg/kg SN-38
[8] = mouse, in vivo
Description: Pharmacokinetics—Naive female NCr nude (nu/nu) mice, 8-10 weeks old, were purchased from Taconic Farms (Germantown, NY). […] ELISA was utilized to determine serum concentrations of total hRS7 IgG by competing for the binding to an anti-hRS7 IgG idiotype antibody with a horseradish peroxidase conjugate of hRS7. […] Pharmacokinetic (PK) parameters were computed by noncompartmental analysis using Phoenix WinNonlin software (version 6.3; Pharsight Corp., Mountainview, CA).

Trop-2 = molecular target: T1, Trop-2 (Homo sapiens, UniProt P09758); test: In vitro cell binding, multiple cell lines; design: endogenous in cells; host or cells: human cancer cell lines (ATCC)
T1 sequence (P09758 27-323): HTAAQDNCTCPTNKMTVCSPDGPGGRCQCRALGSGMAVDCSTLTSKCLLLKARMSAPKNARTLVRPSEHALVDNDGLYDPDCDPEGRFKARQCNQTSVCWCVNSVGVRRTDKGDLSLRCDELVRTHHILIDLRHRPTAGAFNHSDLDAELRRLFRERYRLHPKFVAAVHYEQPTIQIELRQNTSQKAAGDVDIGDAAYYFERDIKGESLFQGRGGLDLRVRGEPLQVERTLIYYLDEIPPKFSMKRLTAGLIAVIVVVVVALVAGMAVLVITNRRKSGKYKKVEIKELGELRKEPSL
Procedure: In Vitro Cell Binding—LumiGLO Chemiluminescent Substrate System (KPL, Gaithersberg, MD) was used to detect antibody binding to cells. Briefly, cells were plated into a 96 black-well, flat-clear-bottom plate overnight. Antibodies were serially diluted 1:2 and added in triplicate, yielding a concentration range from 0.03 to 66.7 nM. After incubating for 1 h at 4° C., the media was removed and the cells washed with fresh cold media followed by the addition of a 1:20,000 dilution of goat-antihuman horseradish peroxidase-conjugated secondary antibody (Jackson Immunoresearch, West Grove, PA) for 1 h at 4° C. The plates were again washed before the addition of the LumiGLO reagent. Plates were read for luminescence using an Envision plate reader (Perkin Elmer, Boston MA). Data were analyzed by non-linear regression to determine the equilibrium dissociation constant (KD). Statistical comparisons of KD-values were made with Prism GraphPad Software (v4.03) (Advanced Graphics Software, Inc.; Encinitas, CA) using an F-Test on the best-fit curves for the data. Significance was set at P<0.05.

BxPC-3 [9] = test: ADCC activity of hRS7-ADC conjugates; type: cell-based, human; conditions: 33.3 nM; PBMC effector to target ratio 100:1
Description: PBMCs were purified from blood purchased from the Blood Center of New Jersey. A Trop-2-positive human pancreatic adenocarcinoma cell line (BxPC-3) was used as the target cell line with an effector to target ratio of 100:1.

[10] = in vivo; cited from earlier work
pancreatic cancer = test: PAM4 clinical trial, 90Y-hPAM4 with gemcitabine; type: in vivo, human; conditions: 22 CT-assessable patients
Procedure: In the ongoing PAM4 clinical trials, a four week clinical treatment cycle is performed. In week 1, subjects are administered a dose of ^111In-hPAM4, followed at least 2 days later by gemcitabine dose. In weeks 2, 3 and 4, subjects are administered a ^90Y-hPAM4 dose, followed at least 2 days later by gemcitabine (200 mg/m^2). Escalation started at 3×6.5 mCi/m^2. The maximum tolerated dose in front-line pancreatic cancer patients was 3×15 mCi/m^2 (hematologic toxicity is dose-limiting).

Capan-1 = test: Combination 90Y-hPAM4 RAIT + ADC, Capan-1 xenograft; type: in vivo, mouse
Description: Objective responses occurred in most animals, but they were more robust in both of the combination groups as compared to each agent given alone. […] These studies provide the first evidence that combined radioimmunotherapy and ADC enhances efficacy at safe doses.

[11] = 0.2 mg/kg SN-38 twice weekly x 4 weeks

## CCc1c2c(nc3ccc(OC(=O)N4CCC(N5CCCCC5)CC4)cc13)-c1cc3c(c(=O)n1C2)COC(=O)[C@]3(O)CC [irinotecan, 7-ethyl-10-[4-(1-piperidino)-1-piperidino]carbonyloxycamptothecin]
COLO 205 tumors; 24 mg SN-38/kg, q2dx5
  efficacy of irinotecan at MTD: as effective as hRS7-CL2-SN-38
[1]; IV, single injection
  MTD: 40 mg/kg
[1]; q2dx5
  MTD: 24 mg SN-38/kg
MDA-MB-468 TNBC tumors
  decrease in tumor size after re-treatment: 23%
[2]
  share of total serum SN-38 that is glucuronidated: > 50%
[3]
  grades 3 and 4 late diarrhea: 31%
Capan-1 tumors
  average tumor size: 1.78±0.62 cm^3

## hA20-CL2-SN-38 [reference compound]
COLO 205 tumors
  tumor volume (TV): 1.19±0.59 cm^3
Capan-1 tumors
  tumor volume (TV): 0.80±0.68 cm^3

## hA20-CL2A-SN-38 [reference compound]
BxPC-3 [4]; untreated 18.8 ± 6.3, listed as hA20-SN-38
  Percent Positive, γH2AX: 12.7 ± 2.4%
BxPC-3 [4]; untreated 2516 ± 191
  Mean Fluorescence Intensity, γH2AX: 2246 ± 58
[5]; 14 days for saline control
  median survival time (MST): 24 days
[5]; mouse, in vivo
  mean time to progression (TTP): 4.1 ± 2.0 days
Capan-1 tumors; [11]
  tumor-free mice at end of study: 20%
[6]; 0.5 mg once a week for two weeks, one week off
  TTP: 4.7 ± 2.2 days
[6]; chronic dosing
  median survival: 21 days
[7]
  tumor volume (TV): 1.05±0.73 cm^3

## hLL2-CL2-SN-38 [reference compound]
Calu-3
  tumor volume (TV): 0.80±0.91 cm^3
  outcome: tumors regrew

## hRS7-CL2-SN-38
COLO 205 tumors; 0.4 mg/kg SN-38 twice weekly x 4 weeks
  tumor growth vs untreated and hA20-CL2A-SN-38: significantly inhibited tumor growth
COLO 205 tumors
  tumor volume (TV): 0.16±0.09 cm^3
Calu-3
  tumor volume (TV): 0.14±0.22 cm^3
  outcome: remained tumor-free until the end of the study on day 147
Capan-1 tumors; [11]
  tumor growth vs untreated and hA20-CL2A-SN-38: significantly inhibited tumor growth
  tumor-free mice at end of study: 40%
Capan-1 tumors
  average tumor size: 0.04±0.05 cm^3
  tumor volume (TV): 0.17±0.18 cm^3

## hRS7-NEM [reference compound]
[8]
  half-life, Cmax, AUC, clearance, MRT vs parental hRS7: no significant differences
Trop-2
  KD: sub-nanomolar range
BxPC-3 [9]
  specific lysis (ADCC): no difference between hRS7-NEM and sacituzumab govitecan

## hRS7-Pro-2-PDox
BxPC-3 [9]
  specific lysis (ADCC): not significantly different

## veltuzumab
[10]
  immunogenicity in subjects: less immunogenic in subjects than rituximab

B1: ^90Y-hPAM4 (conjugate, chains of the INN, looked up)
VH: QVQLQQSGAEVKKPGASVKVSCEASGYTFPSYVLHWVKQAPGQGLEWIGYINPYNDGTQYNEKFKGKATLTRDTSINTAYMELSRLRSDDTAVYYCARGFGGSYGFAYWGQGTLVTVSS
VL: DIQLTQSPSSLSASVGDRVTMTCSASSSVSSSYLYWYQQKPGKAPKLWIYSTSNLASGVPARFSGSGSGTDFTLTISSLQPEDSASYFCHQWNRYPYTFGGGTRLEIK
modifications: 90Y radiolabel
Pancreatic cancer
  disease control rate (CR+PR+SD): 68%
  partial responses: 23%
  stabilization as best response: 45%
Capan-1; 75 μCi 90Y-hPAM4 level, ADC alone, or their combination, n=10
  tumor-free mice after 20 weeks: 1 of 10
Capan-1; 130 μCi 90Y-hPAM4 level, n=10
  tumor-free animals: 5 of 10

B2: hPAM4 (antibody, chains of the INN, looked up, V domains shown)
VH: B1 VH
VL: B1 VL
Capan-1; given alone
  anti-tumor activity of unconjugated antibodies: Neither unconjugated hPAM4 nor hRS7 antibodies had anti-tumor activity
